Assay results: US10543213B2, “Treatment of relapsed and/or refractory solid tumors and non-hodgkin's lymphomas” (Celgene Quanticel Research, Inc., priority 2016, dated 2020)
pIC50: −log10 of the molar value. Read-outs that look alike come from different tables or passages of the source.

Assays:
NCI-H1417 SCLC xenograft = assay: Efficacy in NCI-H1417 SCLC xenograft model; type: in vivo, female athymic nude mice
LU2514 SCLC PDX = type: in vivo
Procedure: Tumor growth inhibition analysis was performed on Day 28 post treatment, the last day of dosing.

LXFS 573 SCLC PDX [1] = assay: Efficacy in LXFS 573 SCLC PDX model; type: in vivo, female immunodeficient NMRI-Foxn1nu mice; settings: 5, 7.5, 10 mg/kg oral
LXFS 615 SCLC PDX = assay: Efficacy in LXFS 615 SCLC PDX model; type: in vivo, female immunodeficient NMRI-Foxn1nu mice; settings: 5 mg base/kg oral for 30 days
LXFS 1129 SCLC PDX = assay: Efficacy in LXFS 1129 SCLC PDX model; type: in vivo, female immunodeficient NMRI-Foxn1nu mice; settings: 1.5 and 5 mg base/kg QD for 30 days
MKL-1 hMCC xenograft = type: in vivo; settings: 5 mg/kg 5 on/2 off
MS-1 hMCC xenograft = type: in vivo; settings: 5 mg/kg 5 on/2 off; Day 36 minus Day -3
[2] = Hemodynamic and ECG parameters in anesthetized guinea pigs; type: in vivo, male Dunkin Hartley guinea pigs
Excerpt: Animals were monitored throughout the experiment.

[3] = 4-week oral gavage pivotal toxicity study with 4-week recovery in dogs; type: in vivo, Beagle dogs
[4] = Pharmacokinetics following IV and oral administration, mice; type: in vivo, CD-1 mice; settings: Mouse, Female, single oral dose 10 mg base/kg
[5] = Pharmacokinetics following IV and oral administration, rats; type: in vivo, Sprague Dawley rats; settings: IV dosing
[6] = biological target: MDR1(human P-gp)-MDCK cells (Homo sapiens (Human), UniProt P08183); assay: Permeability in MDR1-MDCK cells; type: in vitro ADME
P-gp (human MDR1) = P-gp (human MDR1) (Homo sapiens (Human), UniProt P08183); assay: Permeability in MDR1-MDCK cells; type: in vitro ADME; settings: dog
[7] = Metabolism in cryopreserved primary hepatocytes; type: in vitro ADME; settings: hepatocytes of mouse, rat, dog, monkey, human
[8] = test system: recombinant human CYP enzymes; assay: CYP reaction phenotyping with recombinant human CYP enzymes; type: in vitro ADME
Excerpt: The role of non-CYP enzymes in the metabolism of Compound A is yet to be ascertained.

[9] = Excretion in bile duct cannulated rats; type: in vivo; settings: IV, 24-hour period post dosing
CYP2C9 = CYP2C9 (Homo sapiens (Human), UniProt P11712); assay: CYP inhibition in pooled human liver microsomes, CYP2C9; type: in vitro ADME; settings: up to 50 μM
CYP2D6 = CYP2D6 (Homo sapiens (Human), UniProt P10635); assay: CYP inhibition in pooled human liver microsomes, CYP2D6; type: in vitro ADME; settings: up to 50 μM
[10] = test system: Salmonella typhimurium TA98 and TA100 strains; assay: Bacterial reverse mutation assay; type: cell-based; settings: up to 500 μg/mL, presence and absence of S9
[11] = Exploratory toxicity study in mice; type: in vivo, CD-1 mice; settings: for reduction in neutrophil counts vs concurrent controls: 60 mg/kg/dose QOD
Excerpt: Additional animals were included for TK evaluation.

[12] = Exploratory toxicity study in dogs; type: in vivo, Beagle dogs
[13] = Pharmacokinetics across species (statements covering several species); type: in vivo, mice, rats, dogs, and monkeys; settings: plasma; for half-life: intravenous; for bioavailability: po
Procedure: Disparate half-lives were noted between rodents and non-rodents with values ranging from either 2 to 4 hours in rodents or from 12 to 20 hours in non-rodents.

[14] = dog, in vivo
[15] = 4-week toxicity study with 4-week recovery in mice; settings: 25 mg base/kg/dose QOD×3 weekly, males
[16] = 4-week toxicity study (no recovery period) in dogs; settings: Q2W administration, not determined
LXFS 573 SCLC PDX [17] = test system: LXFS 573 SCLC PDX
human LSD-1 = human LSD-1 (Homo sapiens (Human), UniProt O60341); assay: In vitro enzyme inhibition assay LSD-1 (TR-FRET); type: biochemical; settings: H3K4me1-biotin labeled peptide
Excerpt: This assay determines the ability of a test compound to inhibit LSD-1 demethylase activity.
The enzymatic assay of LSD-1 activity is based on Time Resolved-Fluorescence Resonance Energy Transfer (TR-FRET) detection.

[18] = after escalating IV doses up to 20 mg base/kg
[19] = CD-1, Sprague Dawley, mouse, rat, rodents
[20] = Etoposide at 24 mg/kg/day SC days 1-3 + Vehicle
[21] = etoposide monotherapy 24 mg/kg SC

Chain of P-gp (human MDR1) (P08183 whole entry): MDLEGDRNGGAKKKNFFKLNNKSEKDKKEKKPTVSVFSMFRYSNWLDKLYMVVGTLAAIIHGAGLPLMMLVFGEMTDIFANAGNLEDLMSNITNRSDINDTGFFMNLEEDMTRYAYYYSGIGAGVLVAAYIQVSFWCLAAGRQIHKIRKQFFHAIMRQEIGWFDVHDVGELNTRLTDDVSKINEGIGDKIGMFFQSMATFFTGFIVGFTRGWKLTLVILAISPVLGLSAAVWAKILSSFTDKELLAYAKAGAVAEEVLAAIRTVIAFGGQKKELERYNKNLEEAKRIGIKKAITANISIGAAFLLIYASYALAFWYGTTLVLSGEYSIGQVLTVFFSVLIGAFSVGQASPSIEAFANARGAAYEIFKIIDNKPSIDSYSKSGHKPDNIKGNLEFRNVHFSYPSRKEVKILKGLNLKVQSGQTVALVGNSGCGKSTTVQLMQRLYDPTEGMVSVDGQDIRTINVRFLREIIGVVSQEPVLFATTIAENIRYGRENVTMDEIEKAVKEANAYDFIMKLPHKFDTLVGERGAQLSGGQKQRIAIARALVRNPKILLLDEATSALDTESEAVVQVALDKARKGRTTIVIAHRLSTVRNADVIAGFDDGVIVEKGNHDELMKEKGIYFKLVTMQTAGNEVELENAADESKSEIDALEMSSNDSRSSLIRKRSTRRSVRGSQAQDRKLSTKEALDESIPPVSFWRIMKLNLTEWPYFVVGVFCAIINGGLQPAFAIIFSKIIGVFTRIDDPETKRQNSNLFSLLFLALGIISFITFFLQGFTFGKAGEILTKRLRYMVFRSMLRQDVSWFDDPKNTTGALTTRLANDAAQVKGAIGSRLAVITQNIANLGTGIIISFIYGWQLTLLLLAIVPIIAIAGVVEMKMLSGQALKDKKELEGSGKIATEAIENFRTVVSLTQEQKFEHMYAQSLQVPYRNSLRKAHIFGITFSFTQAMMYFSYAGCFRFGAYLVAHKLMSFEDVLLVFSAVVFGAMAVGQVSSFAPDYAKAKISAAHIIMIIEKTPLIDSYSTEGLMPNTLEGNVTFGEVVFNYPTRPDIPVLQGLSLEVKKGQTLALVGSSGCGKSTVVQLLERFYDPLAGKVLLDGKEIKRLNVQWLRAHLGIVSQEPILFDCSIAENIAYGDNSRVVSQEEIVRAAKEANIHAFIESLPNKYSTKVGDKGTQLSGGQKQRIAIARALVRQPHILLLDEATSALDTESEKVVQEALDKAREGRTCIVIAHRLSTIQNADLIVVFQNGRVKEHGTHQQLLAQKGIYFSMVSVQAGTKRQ
Chain of MDR1(human P-gp)-MDCK cells (P08183 whole entry): as above
Chain of CYP2D6 (P10635 whole entry): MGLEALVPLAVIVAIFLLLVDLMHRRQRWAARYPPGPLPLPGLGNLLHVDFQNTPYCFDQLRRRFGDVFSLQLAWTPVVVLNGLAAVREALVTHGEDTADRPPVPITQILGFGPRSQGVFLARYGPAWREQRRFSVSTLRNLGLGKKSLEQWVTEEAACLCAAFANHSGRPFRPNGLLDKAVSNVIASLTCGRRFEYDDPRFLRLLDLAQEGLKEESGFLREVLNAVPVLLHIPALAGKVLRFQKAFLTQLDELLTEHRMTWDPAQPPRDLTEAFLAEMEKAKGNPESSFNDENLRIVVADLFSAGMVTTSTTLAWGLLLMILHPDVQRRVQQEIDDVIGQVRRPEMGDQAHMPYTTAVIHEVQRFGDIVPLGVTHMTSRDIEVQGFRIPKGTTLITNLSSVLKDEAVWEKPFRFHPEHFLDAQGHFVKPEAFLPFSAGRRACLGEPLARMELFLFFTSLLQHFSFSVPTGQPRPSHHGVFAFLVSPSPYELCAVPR
Chain of CYP2C9 (P11712 whole entry): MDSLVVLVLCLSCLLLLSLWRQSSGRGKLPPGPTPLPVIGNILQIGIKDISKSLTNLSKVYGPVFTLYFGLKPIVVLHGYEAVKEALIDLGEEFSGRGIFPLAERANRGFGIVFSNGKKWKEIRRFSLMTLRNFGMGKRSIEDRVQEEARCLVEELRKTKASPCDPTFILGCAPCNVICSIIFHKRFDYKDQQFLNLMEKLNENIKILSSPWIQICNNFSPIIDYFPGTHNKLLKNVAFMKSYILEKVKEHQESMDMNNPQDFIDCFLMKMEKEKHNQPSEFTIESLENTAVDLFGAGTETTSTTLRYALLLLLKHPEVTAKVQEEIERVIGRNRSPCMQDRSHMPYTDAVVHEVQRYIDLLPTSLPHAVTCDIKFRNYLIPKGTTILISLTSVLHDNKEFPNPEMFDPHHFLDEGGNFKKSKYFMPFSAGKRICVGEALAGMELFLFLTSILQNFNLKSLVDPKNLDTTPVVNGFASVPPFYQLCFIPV

SMILES: COc1ccc(-c2c(-c3ccc(C#N)c(F)c3)nc(N3CCC(N)CC3)n(C)c2=O)cc1F [Compound A, 4-[2-(4-amino-piperidin-1-yl)-5-(3-fluoro-4-methoxy-phenyl)-1-methyl-6-oxo-1,6-dihydro-pyrimidin-4-yl]-2-fluoro-benzonitrile]
- mean body weight gain by the end of study (NCI-H1417 SCLC xenograft; 2.5 mg base/kg PO QDx65): 1%
- mean body weight gain by the end of study (NCI-H1417 SCLC xenograft; 5 mg base/kg PO QDx65): 7.5%
- tumors from treated animals regressed in net volume (NCI-H1417 SCLC xenograft; 2.5 and 5 mg base/kg groups together, end of study): 14 out of 15
- tolerability (NCI-H1417 SCLC xenograft; 2.5 or 5 mg base/kg PO QDx65): well tolerated
- tolerability (LU2514 SCLC PDX; both LU2514 studies): well tolerated
- mean body weight losses (LU2514 SCLC PDX; mouse, in vivo): < 10%
- mean body weight losses (LXFS 573 SCLC PDX [1]): ≤ 3%
- mean body weight losses (LXFS 615 SCLC PDX): < 1%
- mean body weight losses (LXFS 1129 SCLC PDX): < 6%
- Median Tumor Volumes Day 15 (MKL-1 hMCC xenograft): 880 mm^3
- Median Tumor Volumes Diff (MS-1 hMCC xenograft): 80 mm^3
- maximum increase of QTcB interval vs time-matched vehicle ([2]; 10 mg base/kg IV): approximately 9%
- maximum increase of QTcB interval vs time-matched vehicle ([2]; 15 mg base/kg IV): ~13%
- maximum increase of QTcB interval vs time-matched vehicle ([2]; 20 mg base/kg IV): ~16%
- decrease in HR, maximum suppression as compared with vehicle ([2]; 20 mg base/kg IV, 9 minutes into the 10-minute infusion): 19%
- effect in MAP or its components ([2]; 5-20 mg base/kg IV vs time-matched vehicle): No notable effect
- NOAEL for hemodynamic and ECG endpoints ([2]; IV administration): 10 mg base/kg
- QTcB interval increase at the end of the monitoring period [2, 18]: 10%
- heart rate decrease at the end of the monitoring period [2, 18]: 18%
- cause of moribund condition ([3]; 0.375 to 1.5 mg base/kg weekly): gastric mucosal ulceration and/or acute inflammation
- accumulation after multiple dosing ([3]; dog, in vivo): No accumulation
- platelet count ([3]; dog, in vivo): mildly to markedly decreased
- AUC0-168 ([3]; female, Beagle, dog, in vivo, po): 435 ng·h/mL
- Cmax ([3]; male, Beagle, dog, in vivo, po): 17.2 ng/mL
- HNSTD and NOAEL for the QW or BIW dose schedule ([3]; not determined): < 0.375 mg base/kg/dose
- moribund euthanasia ([3]; weekly oral, 1 male 0.375 QW, 2 males and 1 female 0.75, 3 males and 4 females 1.5 mg base/kg/dose, Days 13 to 23): 11 animals
- AUClast [4]: 2007 ng·h/mL
- systemic clearance [5]: greater than liver blood flow
- P-gp substrate status [6]: P-gp substrate
- Papp (P-gp (human MDR1); MDCK-MDR1, A→B direction): 0.5 ×10⁻⁶ cm/s
- Papp (P-gp (human MDR1); MDCK-MDR1, B→A direction): 16.5 ×10⁻⁶ cm/s
- metabolic stability [7]: greater in rat and dog followed by human and monkeys while being least stable in mouse hepatocytes
- CYP enzyme responsible for oxidative metabolism [8]: CYP3A4 appears to be predominantly responsible
- dose excreted intact (urine and bile) [9]: 26.3 % of the dose
- dose excreted intact in urine [9]: 8.5 % of dose
- direct inhibitory effect (CYP2C9): little to no direct inhibitory effect
- direct inhibitory effect (CYP2D6): little to no direct inhibitory effect
- mutagenicity [10]: negative
- increase in platelets on Day 8 compared with the end of the first dosing period ([11]; 10 mg/kg/day 5 days on/2 days off): > 2 fold
- reduction in neutrophil counts vs concurrent controls ([11]; females): 66%
- reduction in neutrophil counts vs concurrent controls ([11]; males): 83%
- greatest reduction in neutrophil counts vs concurrent controls and pre-study values ([11]; 5 days on/2 days off schedule): approximately 90%
- circulating platelets ([11]; all dose levels, end of the study): reduced
- accumulation upon repeat dosing ([11]; mice): no accumulation
- treatment-related effects ([12]; 0.25 mg/kg/dose QOD): generally no Compound A-related effects
- accumulation after repeat dosing ([12]; QOD schedule): no accumulation
- half-life ([13]; Beagle, Cynomolgus, dog, monkey, non-rodents): 12 to 20 h
- bioavailability ([13]; Beagle, dog, cynomolgus monkey, dogs and monkeys): 82 to 100%
- Tmax ([13]; CD-1, Sprague Dawley, Beagle, mouse, rat, dog, cynomolgus monkey, oral dosing, mice, rats, dogs, and monkeys, read-out: median time to peak plasma concentration (tmax)): 0.5 to 6 h
- half-life [13, 19]: 2 to 4 h
- bioavailability [13, 19]: 28 to 74%
- accumulation after multiple doses [14]: No accumulation
- AUC0-96 ([14]; female, Beagle, po, 0.25 mg/kg): 343 ng·h/mL
- Cmax ([14]; female, Beagle, po, 0.25 mg/kg): 12.1 ng/mL
- AUC0-96 ([14]; female, Beagle, po, 0.5 mg/kg): 729 ng·h/mL
- mean steady state AUC0-24 [15]: 17,800 ng·hr/mL
- NOAEL [16]: < 0.5 mg base/kg/dose

SMILES: COc1cc([C@@H]2c3cc4c(cc3[C@@H](O[C@@H]3O[C@@H]5CO[C@@H](C)O[C@H]5[C@H](O)[C@H]3O)[C@H]3COC(=O)[C@H]23)OCO4)cc(OC)c1O [Etoposide, etoposide, reference compound]
- % TGD (LXFS 573 SCLC PDX [17]; [20]): 50%
- T-C (LXFS 573 SCLC PDX [17]; [20]): 21 days
- median TTE (LXFS 573 SCLC PDX [17]; [20]): 63 days
- SS number of study survivors (LXFS 573 SCLC PDX [17]; Etoposide at 24 mg/kg/day SC days 1-3 + Vehicle, Day 133, N=8): 0 (na)
- % TGD (LXFS 573 SCLC PDX [17]; [21]): 50%
- TGD (LXFS 573 SCLC PDX [17]; [21]): 21 days
- median TTE (LXFS 573 SCLC PDX [17]; [21]): 63 days

SMILES: CCn1c(N2CCC(N)CC2)nc(-c2ccc(C#N)c(F)c2)cc1=O [Example 13, 4-[2-(4-amino-piperidin-1-yl)-1-ethyl-6-oxo-1,6-dihydro-pyrimidin-4-yl]-2-fluoro-benzonitrile]
- pIC50 (human LSD-1): 6.00 to 7.00

SMILES: N#Cc1ccc(-c2cc(=O)n(CCCO)c(N3CCC(N)CC3)n2)cc1F [Example 17, 4-[2-(4-amino-piperidin-1-yl)-1-(3-hydroxy-propyl)-6-oxo-1,6-dihydro-pyrimidin-4-yl]-2-fluoro-benzonitrile]
- pIC50 (human LSD-1): 6.00 to 7.00

SMILES: Cn1c(N2CCC(N)CC2)nc(-c2ccc(C#N)c(F)c2)c(-c2ccc(C(=O)O)cc2)c1=O [Example 39, 4-[2-(4-aminopiperidyl)-6-(4-cyano-3-fluorophenyl)-3-methyl-4-oxo-3-hydropyrimidin-5-yl] benzoic acid]
- pIC50 (human LSD-1): 6.00 to 7.00

SMILES: N#Cc1ccc(-c2cc(=O)n(CC3CC3)c(N3CCC(N)CC3)n2)cc1F [Example 109, 4-[2-(4-amino-piperidin-1-yl)-1-cyclopropylmethyl-6-oxo-1,6-dihydro-pyrimidin-4-yl]-2-fluoro-benzonitrile]
- pIC50 (human LSD-1): 6.00 to 7.00

SMILES: Cn1c(N2CCC(N)CC2)nc(-c2ccncc2)c(-c2ccc3c(ccn3C)c2)c1=O [Example 116, 2-(4-amino-piperidin-1-yl)-3-methyl-5-(1-methyl-1H-indol-5-yl)-6-pyridin-4-yl-3H-pyrimidin-4-one]
- pIC50 (human LSD-1): 6.00 to 7.00
